The values below come from patent US20240209389A1, “PLANT HAVING ENHANCED RESISTANCE AGAINST COLORADO POTATO BEETLE AND METHOD FOR PRODUCING SAME, AND METHOD FOR EVALUATING RESISTANCE AGAINST COLORADO POTATO BEETLE IN PLANT” (KANEKA CORPORATION, priority 2020, published 2024).

The test system of one assay is S123DOX. As to the kind of experiment: Detection of in vitro enzyme activity of 23DOX (LC-MS of reaction product). In kind it is biochemical, S. lycopersicum. The note with it: 50 μM substrate, crude extraction fraction of E. coli expressing S123DOX, 2-oxoglutaric acid, sodium ascorbate, FeSO4, pH 7.2. As for the experimental part: (§1) First, in order to synthesize 23DOX in E. coli, the S123DOX gene and the Sc23DOX gene were each linked to a pCold ProS2 vector (manufactured by Takara Bio Inc.), and were introduced into E. coli BL21 (DE3). The obtained recombinant E. coli was cultured at 37° C. until the OD600 value reached 0.5, was cooled to 15° C., and was left to stand for 30 minutes. IPTG was added thereto so that the final concentration reached 0.1 mM, and the mixture was cultured under shaking at 15° C. for 24 hours, to induce expression of the recombinant protein.
(§2) Then, the E. coli bodies whose expression was induced were collected, and were suspended in a sonication buffer [50 mM Bis-Tris-HCl (pH 7.0), 150 mM NaCl, 1 mM dithiothreitol, 10% glycerol]. After an ultrasonic crushing machine was used to crush bacterial cells, the mixture was subjected to centrifugal separation, and crude extraction fractions were obtained from the supernatant. A 100 mM Bis-Tris-HCl solution (pH 7.2, containing 5 mM 2-oxoglutaric acid, 10 mM sodium ascorbate, and 200 μM FeSO4) containing a 50 μM substrate was added to the mixture, and was allowed to react.
(§3) The obtained reaction product was analyzed through LC-MS (manufactured by Waters, product name: UPLC-ESI-MS ACQUITY). As the column, ACQUITY HSS T3 1.8 μm φ 2.1×100 mm (manufactured by Waters) was used. […]

A further assay concerns St23DOX. As to the kind of experiment: Detection of in vitro enzyme activity of St23DOX (LC-MS of reaction product). Type of assay: biochemical, S. tuberosum. Particulars: same method as Example 3, crude extraction fraction of E. coli expressing St23DOX. As to the method:
as §1, §2
The obtained reaction product was analyzed through LC-MS (manufactured by Waters, product name: UPLC-ESI-MS ACQUITY). […]
The St23DOX gene identified in Example 10 was analyzed in the same method described in Example 3. […]

The next assay has as its system Sc23DOX. Description: Detection of in vitro enzyme activity of 23DOX (LC-MS of reaction product). Type of assay: biochemical, S. chacoense. Particulars: 50 μM substrate, crude extraction fraction of E. coli expressing Sc23DOX, 2-oxoglutaric acid, sodium ascorbate, FeSO4, pH 7.2. As for the experimental part:
as §1, §2, §3

Another assay has as its system Sc23ACT. As to the kind of experiment: Detection of in vitro enzyme activity of 23ACT (LC-MS of reaction product). In kind it is biochemical, S. chacoense. The note with it: 50 μM substrate, crude extraction fraction of E. coli expressing Sc23ACT, 400 μM acetyl CoA, pH 7.2. As for the experimental part:
(§4) First, in order to synthesize 23ACT in vitro, the S123ACT gene and the Sc23ACT gene were each linked to a pCold ProS2 (manufactured by Takara Bio Inc.), and were introduced into E. coli BL21 (DE3). The obtained recombinant E. coli was cultured at 37° C. until the OD600 value reached 0.5, was cooled to 15° C., and was left to stand for 30 minutes. IPTG was added thereto so that the final concentration reached 0.1 mM, and the mixture was cultured under shaking at 15° C. for 24 hours, to induce expression of the recombinant protein. Then, the E. coli bodies whose expression was induced were collected, and were suspended in a sonication buffer [50 mM Bis-Tris-HCl (pH 7.0), 150 mM NaCl, 1 mM dithiothreitol, 10% glycerol]. After an ultrasonic crushing machine was used to crush bacterial cells, the mixture was subjected to centrifugal separation, and crude extraction fractions were obtained from the supernatant. A 100 mM Bis-Tris-HCl solution (pH 7.2, containing 400 μM acetyl COA) containing a 50 μM substrate was added to the mixture, and was allowed to react.
(§5) The obtained reaction product was analyzed through LC-MS (manufactured by Waters, product name: UPLC-ESI-MS ACQUITY). As the column, ACQUITY HSS T3 (1.8 μm φ2.1×100 mm) (manufactured by Waters) was used. In LC analysis, gradient elution was performed using a mobile phase (A: 0.1% formic acid water and B: acetonitrile). The gradient elution was performed under the condition: 0 to 30 minutes, 90% A/10% B to 45% A/55% B; 30 to 31 minutes, 45% A/55% B to 100% B; and maintaining for from 31 to 35 minutes, 100% B.

The subject of the next assay is S123ACT. The assay is described as above. In kind it is biochemical, S. lycopersicum. The note with it: 50 μM substrate, crude extraction fraction of E. coli expressing S123ACT, 400 μM acetyl CoA, pH 7.2. As for the experimental part:
as §4, §5

The subject of the next assay is St23ACT. As to the kind of experiment: Detection of in vitro enzyme activity of St23ACT (LC-MS of reaction product). In kind it is biochemical, S. tuberosum. Particulars: same method as Example 4, crude extraction fraction of E. coli expressing St23ACT. As to the method: as §4
The obtained reaction product was analyzed through LC-MS (manufactured by Waters, product name: UPLC-ESI-MS ACQUITY). As the column, ACQUITY HSS T3 (1.8 μm φ2.1×100 mm) (manufactured by Waters) was used. […]
The St23ACT gene identified in Example 12 was analyzed in the same method described in Example 4. […]

Take `C[C@H]1CC[C@]2(NC1)O[C@H]1C[C@H]3[C@@H]4CC[C@H]5C[C@@H](O[C@@H]6O[C@H](CO)[C@H](O[C@@H]7O[C@H](CO)[C@@H](O)[C@H](O[C@@H]8OC[C@@H](O)[C@H](O)[C@H]8O)[C@H]7O[C@@H]7O[C@H](CO)[C@@H](O)[C@H](O)[C@H]7O)[C@H](O)[C@H]6O)CC[C@]5(C)[C@H]4CC[C@]3(C)[C@H]1[C@@H]2C` [α-tomatine]: the “introduction of a hydroxy group to position 23 of the substrate (reaction product)” value in the assay with S123DOX was “a product to which a hydroxy group was introduced at position 23 was obtained”; in the assay on St23DOX it was “a product to which a hydroxy group was introduced at position 23 can be obtained”; in the assay on Sc23DOX, “a product to which a hydroxy group was introduced at position 23 was obtained”.

On to `C[C@H]1CC[C@@H]2[C@@H](C)[C@H]3[C@H](C[C@H]4[C@@H]5CC=C6C[C@@H](O[C@@H]7O[C@H](CO)[C@H](O)[C@H](O[C@@H]8O[C@H](CO)[C@@H](O)[C@H](O)[C@H]8O)[C@H]7O[C@@H]7O[C@@H](C)[C@H](O)[C@@H](O)[C@H]7O)CC[C@]6(C)[C@H]5CC[C@]34C)N2C1` [α-solanine], for which the “introduction of a hydroxy group to position 23 of the substrate (reaction product)” value in the assay on S123DOX and with Sc23DOX was “a new reaction product was not obtained” throughout.

With `CC1CC(O)C2C(C)C3C(CC4C5CC=C6CC(OC7OC(CO)C(OC8OC(C)C(O)C(O)C8O)C(O)C7OC7OC(C)C(O)C(O)C7O)CCC6(C)C5CCC43C)N2C1` [leptinine I, 3β-[2-O,4-O-bis(α-L-rhamnopyranosyl)-β-D-glucopyranosyloxy]solanid-5-en-23β-ol], the “acetylation of the hydroxy group of position 23 of the substrate (reaction product)” value (“acetylation” below) in the assay on Sc23ACT and with S123ACT was “a new reaction product was not obtained” each time.

On to 23 hydroxy tomatine, for which the “acetylation” value with Sc23ACT, with St23ACT and in the assay with S123ACT was “a product to which an acetoxy group was introduced at position 23 was obtained” each time.

In the case of `C[C@H]1C[C@H](O)[C@@H]2[C@@H](C)[C@H]3[C@H](C[C@H]4[C@@H]5CC=C6C[C@@H](O[C@@H]7O[C@H](CO)[C@H](O)[C@H](O[C@@H]8O[C@H](CO)[C@@H](O)[C@H](O)[C@H]8O)[C@H]7O[C@@H]7O[C@@H](C)[C@H](O)[C@@H](O)[C@H]7O)CC[C@]6(C)[C@H]5CC[C@]34C)N2C1` [leptinine II, 3β-[(3-O-β-D-glucopyranosyl-2-O-α-L-rhamnopyranosyl-β-D-galactopyranosyl)oxy]solanid-5-en-23β-ol], the “acetylation” value in the assay on Sc23ACT and in the assay on S123ACT was “a new reaction product was not obtained” each time.
